“Also recorded” adds a separate entry of the source. Where two headings read alike, the source gives them in different places.
Assays:
[1] = tested on: tactile allodynia (paw withdrawal thresholds); assay: Tactile allodynia (50% paw withdrawal threshold, von Frey) after intravenous drug, L5/L6 spinal nerve ligated rats; format: in vivo, Male Harlan Sprague-Dawley rats
Excerpt: For intravascular access, external jugular catheters were fashioned from PE-50 tubing and inserted into an external jugular vein under halothane/oxygen anesthesia. Arterial catheters were also fashioned from PE-50 with a small bouton 1 cm from the intravascular end for suture securing; they were inserted into a carotid artery, taking care to spare the surrounding nerves. All catheters were flushed with heparinized saline (10 U/ml) and tunneled subcutaneously to emerge at the posterior base of the neck, and capped when not in use. […] Rats were placed in a plastic cage with an open wire mesh bottom and allowed to accommodate for approximately fifteen minutes. A series of 8 von Frey filaments with logarithmically incremental stiffness (0.41, 0.70, 1.20, 2.00, 3.63, 5.50, 8.50, and 15.10 g) (Stoelting, Wood Dale, Ill.) was used to determine the 50% threshold for paw withdrawal to light mechanical stimuli (PWT). In brief, von Frey hairs were sequentially applied using an up-and-down paradigm to the left mid-plantar hindpaw with sufficient force to cause slight filament buckling. Positive responses were noted if the paw was sharply withdrawn. […] Otherwise, PWT were calculated by noting the stimulus level at which the first change in behavior occurred, collecting four additional responses to the continued up-and-down oscillation of stimulus presentation around the response threshold, and interpolating the 50% response threshold. […] The following equation was used to compute %MPE: [formula] Plasma drug levels and PWT were correlated using linear regression. Serially measured PWT and %MPE were compared using repeated measures ANOVA.

[2] = cited from earlier work
[3] = tested on: tactile allodynia (paw withdrawal thresholds); assay: Mechanical allodynia after single i.p. dose in DA rats (left L5/L6 spinal nerve ligation); format: in vivo
[4] = DA rats; some species of rats; cited from earlier work
[5] = Solubility; format: physicochemical; settings: IT vehicle 10% DMSO, 25% propylene glycol, 25% ethanol, 40% saline; injected volume 10 μl
Excerpt: The free base forms of the compounds of general formula I are not water-soluble; for example, it was necessary to dissolve the free base of 3-hydroxylidocaine in a vehicle containing an empirically determined mixture of ethanol, dimethyl sulfoxide, propylene glycol and saline for application to the rat spinal cord. The physiologically-acceptable salt forms of the compounds of general formula I employed in accordance with the present invention, in contrast, are generally water-soluble to at least some degree, and the solubility properties thereof can be in many cases improved by conjugation. Unlike the free base forms of the compounds of general formula I, the salt forms may be administered by a variety of known routes [e.g., oral intravenous, intrathecal, local (e.g., intraneuromal), epidural, transdermal, etc.] as would be readily appreciated by those skilled in the art. As is conventional practice in the art, the active agent of general formula I is typically administered in a pharmaceutically acceptable carrier or excipient (e.g., saline).

[6] = tested on: P450 PA(P45OIA2) enzyme; settings: lidocaine metabolite formation; cited from earlier work
[7] = tested on: tactile allodynia (paw withdrawal thresholds); assay: Tactile allodynia (50% paw withdrawal threshold, von Frey) after intrathecal drug, L5/L6 spinal nerve ligated rats; format: in vivo, Male Harlan Sprague-Dawley rats
Method: Male Harlan Sprague-Dawley rats were used (100-200 g). Rats were housed 2-3 to a cage with corn cob bedding and Purina rat chow and water ad libitum, in a standard facility with a 12 h/ 12 h day/night cycle. After surgical procedures involving chronic indwelling catheter insertion, animals were housed singly to prevent catheter damage.
Rats were allowed to recover 5-7 days before further testing or surgeries.
The catheters were 9 cm in intrathecal length and terminated near the lumbar enlargement. The rostral 3 cm of catheter was tunneled under the skin to externalize between the ears. Rats with neurologic deficits were discarded.
Monoethylglycinexylidide (MEGX) was dissolved in physiologic saline; 3-hydroxylidocaine (3-OH L) was dissolved in DMSO for intravenous administration.
Intravenous drugs were delivered to awake, unrestrained rats by slow infusion using a syringe pump (Harvard apparatus 22). Intrathecal drugs were delivered to awake, briefly restrained rats in a volume of 10 μl, followed by 10 μl of vehicle flush, using a calibrated tubing extension with a 30-gauge adapter fitting the implanted intrathecal catheter, attached to a geared Hamilton 100 μl glass syringe. IT drug delivery was monitored by observing the advancement of a small air bubble down the tubing.
Rats were placed in a plastic cage with an open wire mesh bottom and allowed to accommodate for approximately fifteen minutes. […] In brief, von Frey hairs were sequentially applied using an up-and-down paradigm to the left mid-plantar hindpaw with sufficient force to cause slight filament buckling. Positive responses were noted if the paw was sharply withdrawn. […] Otherwise, PWT were calculated by noting the stimulus level at which the first change in behavior occurred, collecting four additional responses to the continued up-and-down oscillation of stimulus presentation around the response threshold, and interpolating the 50% response threshold. […] The following equation was used to compute %MPE: [formula]
Plasma drug levels and PWT were correlated using linear regression. Serially measured PWT and %MPE were compared using repeated measures ANOVA.

[8] = tested on: tactile allodynia (paw withdrawal thresholds); assay: Mechanical allodynia after single i.p. dose in SD rats (left L5/L6 spinal nerve ligation); format: in vivo

## CCN(CC)CC(=O)Nc1c(C)ccc(O)c1C [3-OH L, 3-hydroxylidocaine]
[1]; 3-OH L IV in DMSO, 20 mg/kg total (FIG. 2), N=4, baseline 1.57±0.5 g, P=<0.0001
  PWT after infusion: 15 ± 0 g
[1]; IV
  duration of effect on allodynia, IV route: not by the IV route
[1]; IV 3-OH L compared with parent compound
  potency and onset of allodynia suppression relative to lidocaine: more potent with regard to this effect; also recorded: far more rapid onset
[1]; IV, N=4
  allodynia suppression by IV delivery: highly active when administered intravenously; also recorded: both potent and effective at suppressing allodynia; also recorded: complete normalization
[2]
  production of 3-OH L in humans: humans do produce some 3-OH L
[2]; listed as 3-OHL
  production of 3-OH L in humans: very small quantities
[3]; 3-OHL 15 mg/kg i.p., N=5, P<0.002, followed for 7 days
  duration of significant effect on allodynia, DA rats: up to 7 days
[3]; single i.p. dose, lidocaine 60 mg/kg, 3-OHL 15 mg/kg (P<0.002)
  effect on tactile allodynia, DA rats: persistently reduced allodynia in both strains; also recorded: persistent suppression of allodynia
[4]
  3-hydroxylation / production of 3-OH L in rats: Some species of rats predominantly produce 3-OH L
[5]
  highest dose soluble in the vehicle: 58 µg
[6]
  enzyme producing the metabolite 3-OH L: produced by the P450 PA(P45OIA2) enzyme
[7]; 3-OH L 58 μg IT single dose, follow-up period
  persistence of allodynia suppression after single IT dose: 5 days
[7]; 3-OH L 58 μg IT, N=6, baseline 2.7±0.2, vehicle 2.2±0.5, P=0.0008, unit not given
  thresholds at 5 days post treatment: 9.3±2.5
[7]; 3-OH L 58 μg IT, baseline 2.3±0.39 g, P<0.0001
  PWT at 60 minutes after IT treatment: 10.66 ± 2.3 g
[7]; IT
  duration of effect on allodynia, IT route: long lasting effect by the IT route
[7]; IT, lidocaine 500 μg, MEGX 500 μg, 3-OH L 58 μg
  effect on allodynia thresholds after IT delivery: suppressed allodynia after IT administration; also recorded: significantly effective at suppressing allodynia
[8]; 3-OHL 15 mg/kg i.p., N=6, P<0.05, followed for 7 days
  duration of significant effect on allodynia, SD rats: up to 7 days
[8]; i.p. (FIG. 7)
  magnitude and duration of effect of 15 mg/kg 3-OHL relative to 60 mg/kg lidocaine in SD rats: apparently shorter duration
[8]; single i.p. dose, lidocaine 60 mg/kg, 3-OHL 15 mg/kg (P<0.05)
  effect on tactile allodynia, SD rats: persistently reduced allodynia in both strains; also recorded: persistent suppression of allodynia

Source: patent US5849737A, “Compositions and methods for treating pain” (priority 1995, dated 1998)
